Experimental data: US20040229825A1, “Pharmaceutical composition for treatment of infection with drug resistant bacterium and disinfectant” (priority 2003, published 2004)
Values after ≈ are worked out from the molar mass of the structure shown.

Legend:
MRSA [1] = test: Enhancement of the antibacterial activity of various antibiotics by flavone on MRSA; type: cell-based, Staphylococcus aureus; settings: for MIC: Staphylococcus aureus, antibiotics alone; for MIC +flavone: addition of 50 μg/mL of flavone
Description: (§1) MRSA were employed as bacteria to be tested. The antibacterial activity was determined according to the agar plate dilution method defined by Japan Society of Chemotherapy (Chemotherapy 29(1), 76-79(1981)). The employed plate medium for the measurement of sensitivity was semisynthetic medium based on Mueller-Hinton Agar, and the bacteria solution for seeding was prepared by incubating the test bacterium in Mueller-Hinton Broth at 37° C. for 20 hours, followed by diluting in 0.85% saline to give 10^6 CFU/mL. The test samples were produced in two times-serial dilution method. To this plate medium for the measurement of sensitivity, was seeded a bacteria solution with a Micro Planter® (Sakuma Seisakusho). After incubating at 37° C. for 20 hours, a minimum inhibitory concentration (MIC) was determined. […] In addition, MIC50 indicates a concentration yielding the proliferation inhibitory effect in 50% of total number of MRSA strains, whilst MIC90 indicates a concentration yielding the proliferation inhibitory effect in 90% of total number of MRSA strains.
Antibacterial Activities of Various β-Lactam Antibiotics on MRSA with 50 μg/mL of Flavone

MRSA [2] = test: Antibacterial activity of flavonoids on MRSA (agar plate dilution method, MIC); type: cell-based, Staphylococcus aureus; settings: flavonoid alone; for MIC / MIC50 / MIC90: Staphylococcus aureus, MRSA 20 strains; for MIC: 20 h; for MIC50: read-out: MIC50; for MIC90: read-out: MIC90
Description: as §1

[3] = Dissolution of rutin (auxiliary effects of L-arginine hydrochloride and L-cysteine); solubility in water; type: physicochemical; settings: aqueous with cosolvent or surfactant or cyclodextrin; solution with 4 mmol L-arginine hydrochloride, 1 mmol L-cysteine, 8 mmol 1 N NaOH, adjusted to pH 8.5, precipitate removed
Description: To the solution B, is added 3.5 mL of the solution A. After adjusting the pH of the mixture to 8.5 with HCl, the mixture is filtered to give an injectable.

MRSA infected mouse = test: Antibacterial activity on MRSA infected mouse (survival rate after 5 days); type: in vivo; settings: rutin alone
Description: MRSA was incubated with Brain-Heart Infusion medium at 37° C. for 18 hours, and then the bacteria were collected and washed, followed by resuspension in saline. The suspension was admixed in an aqueous 5% gastric mucin solution and the concentration was adjusted to a predetermined value. Then, 0.2 mL of the mixture was intraperitoneally administered to an ICR strain SPF mouse. At one hour after the infection, various concentrations of β-lactam agents and rutin (0.2 mL) was subcutaneously administered, and survival rate was analyzed after 5 days and thus the effectiveness was evaluated. In addition, the effectiveness by oral administration (0.2 mL) was evaluated and various concentrations of β-lactam agents and rutin (0.2 mL) were administered using a gastric probe 1 hour or 5 hours prior to the infection.

MRSA [4] = test: Enhancement of the antibacterial activity of methicillin by various flavonoids on MRSA; type: cell-based, Staphylococcus aureus; settings: 50 μg/mL of the named flavonoid added
Description: as §1
Antibacterial Activities of Methicillin on MRSA with 50 μg/mL of Various Flavonoids

[5] = tested on: penicillinase producing Staphylococcus aureus; test: Effects of flavone in combination with benzylpenicillin or methicillin on penicillinase producing Staphylococcus aureus; type: cell-based
Description: as §1
The effects of flavone in combination with benzylpenicillin or methicillin on penicillinase producing Staphylococcus aureus are shown in Table 4.
Effects of Flavone in Combination with Benzylpenicillin or Methicillin on Penicillinase Producing Staphylococcus aureus.

Structure (SMILES): CO/N=C(\C(=O)N[C@@H]1C(=O)N2C(C(=O)O)=C(COC(N)=O)CS[C@H]12)c1ccco1 [cefuroxime]
- MIC (MRSA [1]): 1020 µg/mL
- MIC +flavone (MRSA [1]): 512 µg/mL

Structure (SMILES): O=c1c(O)c(-c2ccc(O)c(O)c2)oc2cc(O)ccc12 [fisetin]
- MIC (MRSA [2]): 62.5 to 125 µg/mL (≈ 218 to 437 µM)
- MIC50 (MRSA [2]): 125 µg/mL (≈ 437 µM)
- MIC90 (MRSA [2]): 125 µg/mL (≈ 437 µM)
- antibacterial activity on MRSA (in words) (MRSA [2]): potent antibacterial activity

Structure (SMILES): C[C@@H]1O[C@@H](OC[C@H]2O[C@@H](Oc3c(-c4ccc(O)c(O)c4)oc4cc(O)cc(O)c4c3=O)[C@H](O)[C@@H](O)[C@@H]2O)[C@H](O)[C@H](O)[C@H]1O [rutin]
- solubility [3]: 49.8 mg/mL (≈ 81600 µM)
- survival rate (MRSA infected mouse; oral, 1 mg/mouse): 20%
- survival rate (MRSA infected mouse; oral, 5 mg/mouse): 20%
- survival rate (MRSA infected mouse; oral, 10 mg/mouse): 20%
- survival rate (MRSA infected mouse; oral, 15 mg/mouse): 40%
- survival rate (MRSA infected mouse; subcutaneous, 1 mg/mouse): 40%
- survival rate (MRSA infected mouse; subcutaneous, 5 mg/mouse): 40%
- survival rate (MRSA infected mouse; subcutaneous, 10 mg/mouse): 20%
- survival rate (MRSA infected mouse; subcutaneous, 15 mg/mouse): 40%

Structure (SMILES): O=c1cc(-c2ccccc2)oc2cc(O)c(O)cc12 [6,7-dihydroxyflavone]
- MIC50 (MRSA [2]): 62.5 µg/mL (≈ 246 µM)
- MIC90 (MRSA [2]): 125 µg/mL (≈ 492 µM)
- antibacterial activity on MRSA (in words) (MRSA [2]): potent antibacterial activity

Structure (SMILES): Oc1ccc(-c2[o+]c3cc(O)cc(O)c3cc2O)cc1 [palagonidin]
- MIC (MRSA [2]): 250 µg/mL
- MIC50 (MRSA [2]): 250 µg/mL
- MIC90 (MRSA [2]): 250 µg/mL

Structure (SMILES): O=c1c(O)c(-c2ccc(O)cc2O)oc2cc(O)cc(O)c12 [morin]
- MIC50 (MRSA [2]): 500 µg/mL (≈ 1650 µM)
- MIC90 (MRSA [2]): > 500 µg/mL

Structure (SMILES): CC1=C(C(=O)O)N2C(=O)[C@@H](NC(=O)[C@H](N)C3=CCC=CC3)[C@H]2SC1 [cefradine]
- MIC (MRSA [1]): > 256 µg/mL
- MIC +flavone (MRSA [1]): 1 µg/mL

Structure (SMILES): CC(=N)N1CC[C@H](SC2=C(C(=O)O)N3C(=O)[C@H]([C@@H](C)O)[C@H]3C2)C1 [panipenem]
- MIC (MRSA [1]): 64 µg/mL
- MIC +flavone (MRSA [1]): 0.002 µg/mL

Structure (SMILES): O=C(/C=C/c1ccc(O)c(O)c1)c1ccc(O)cc1O [butein]
- MIC (MRSA [2]): 125 to 250 µg/mL (≈ 459 to 918 µM)
- MIC50 (MRSA [2]): 250 µg/mL (≈ 918 µM)
- MIC90 (MRSA [2]): 250 µg/mL (≈ 918 µM)

Structure (SMILES): O=C1c2ccc(O)cc2O[C@H](c2ccc(O)c(O)c2)[C@H]1O [fustin]
- MIC50 (MRSA [2]): 500 µg/mL (≈ 1730 µM)
- MIC90 (MRSA [2]): 500 µg/mL (≈ 1730 µM)

Structure (SMILES): Oc1cc(O)c2c(c1)O[C@@H](c1cc(O)c(O)c(O)c1)[C@H](O)C2 [(−)-gallocatechin]
- MIC of methicillin (MRSA [4]): 2 µg/mL

Structure (SMILES): O=C1C[C@@H](c2ccc(O)cc2)Oc2cc(O)cc(O)c21 [naringenin]
- MIC50 (MRSA [2]): 500 µg/mL (≈ 1840 µM)
- MIC90 (MRSA [2]): > 500 µg/mL

Structure (SMILES): O=c1c(O)c(-c2cc(O)c(O)c(O)c2)oc2cc(O)cc(O)c12 [myricetin]
- MIC (MRSA [2]): 250 to 500 µg/mL (≈ 786 to 1570 µM)
- MIC50 (MRSA [2]): 500 µg/mL (≈ 1570 µM)
- MIC90 (MRSA [2]): 500 µg/mL (≈ 1570 µM)

Structure (SMILES): CO[C@@]1(NC(=O)Cc2cccs2)C(=O)N2C(C(=O)O)=C(COC(N)=O)CS[C@@H]21 [cefoxitin]
- MIC (MRSA [1]): 512 µg/mL
- MIC +flavone (MRSA [1]): 32 µg/mL

Structure (SMILES): CC1(C)S[C@@H]2[C@H](NC(=O)Cc3ccccc3)C(=O)N2[C@H]1C(=O)O [benzylpenicillin]
- MIC (MRSA [1]): 64 µg/mL
- MIC +flavone (MRSA [1]): 32 µg/mL
- MIC ([5]; + flavone 50 μg/mL): 0.39 µg/mL
- MIC ([5]; antibiotic alone): 1.56 µg/mL
